# pIC50: −log10 of the molar value.
# System: platelet aggregation
# Experiment: Platelet aggregation inhibitory activity (ADP-induced, human platelet rich plasma)
# Assay type: cell-based
# Conditions: Homo sapiens, Table 2, same manner as Example 17
# Experimental: The blood was collected from the elbow vein of a normal volunteer with mixing thereof with 1/10 volume of 3.8% sodium citrate, and the blood was centrifuged at 1000 rpm (150 g) for 10 minutes to give the supernatant as platelet rich plasma (PRP). To PRP (200 μl) was added a test compound solution (2 μl), and the mixture was incubated with stirring at 1000 rpm at 37° C. for two minutes, and thereto was added a platelet aggregator, adenosine diphosphate (ADP, 22 μl) at a final concentration of 3 μg/ml. The platelet aggregation activity was determined by nephelometric analysis using a Hematracer (manufactured by Niko Bioscience, Ltd.). The test results of platelet aggregation inhibitory activity are expressed by IC50, which is a concentration of the test compound being required to inhibit the platelet aggregation reaction by 50%.
# The compounds of Examples 18 to 70 were tested in the same manner as in Example 17.
# The compounds of Examples 72 to 116 were tested in the same manner as in Example 17.
row,SMILES,pIC50
1,"Cc1ccccc1S(=O)(=O)N[C@@H](CNC(=O)CCNC(=O)CCC1CCNCC1)C(=O)O [Example 24, (2S)-2-(2-methyl)benzenesulfonylamino-3-(3-(3-(4-piperidyl)propanoylamino)propanoylamino)propanoic Acid]",7.52
2,"Cc1cccc(S(=O)(=O)N[C@@H](CNC(=O)CCNC(=O)CCC2CCNCC2)C(=O)O)c1 [Example 25, (2S)-2-(3-methyl)benzenesulfonylamino-3-(3-(3-(4-piperidyl)propanoylamino)propanoylamino)propanoic Acid]",7.66
3,"Cc1ccc(S(=O)(=O)N[C@@H](CNC(=O)CCNC(=O)CCC2CCNCC2)C(=O)O)cc1 [Example 26, (2S)-2-(4-methyl)benzenesulfonylamino-3-(3-(3-(4-piperidyl)propanoylamino)propanoylamino)propanoic Acid]",7.54
4,O=C(CCC1CCNCC1)NCCC(=O)NC[C@H](NS(=O)(=O)c1ccccc1C(F)(F)F)C(=O)O [Example 27],7.59
5,"O=C(CCC1CCNCC1)NCCC(=O)NC[C@H](NS(=O)(=O)c1cccc(C(F)(F)F)c1)C(=O)O [Example 28, (2S)-3-(3-(3-(4-piperidyl)propanoylamino)propanoylamino)-2-(3-trifluoromethyl)benzenesulfonylaminopropanoic Acid]",7.24
6,"O=C(CCC1CCNCC1)NCCC(=O)NC[C@H](NS(=O)(=O)c1ccc(C(F)(F)F)cc1)C(=O)O [Example 29, (2S)-3-(3-(3-(4-piperidyl)propanoylamino)propanoylamino)-2-(4-trifluoromethyl)benzenesulfonylaminopropanoic Acid]",6.77
7,"O=C(CCC1CCNCC1)NCCC(=O)NC[C@H](NS(=O)(=O)c1ccccc1[N+](=O)[O-])C(=O)O [Example 30, (2S)-2-(2-nitro)benzenesulfonylamino-3-(3-(3-(4-piperidyl)propanoylamino)propanoylamino)propanoic Acid]",7.80
8,"O=C(CCC1CCNCC1)NCCC(=O)NC[C@H](NS(=O)(=O)c1cccc([N+](=O)[O-])c1)C(=O)O [Example 31, (2S)-2-(3-nitro)benzenesulfonylamino-3-(3-(3-(4-piperidyl)propanoylamino)propanoylamino)propanoic Acid]",6.85
9,"O=C(CCC1CCNCC1)NCCC(=O)NC[C@H](NS(=O)(=O)c1ccc([N+](=O)[O-])cc1)C(=O)O [Example 32, (2S)-2-(4-nitro)benzenesulfonylamino-3-(3-(3-(4-piperidyl)propanoylamino)propanoylamino)propanoic Acid]",6.82
10,"Cc1cc(C)c(S(=O)(=O)N[C@@H](CNC(=O)CCNC(=O)CCC2CCNCC2)C(=O)O)c(C)c1 [Example 33, (2S)-3-(3-(3-(4-piperidyl)propanoylamino)propanoylamino)-2-(2,4,6-trimethyl)benzenesulfonylaminopropanoic Acid]",7.82
11,"O=C(CCC1CCNCC1)NCCC(=O)NC[C@H](NS(=O)(=O)c1c(F)c(F)c(F)c(F)c1F)C(=O)O [Example 34, (2S)-2-(2,3,4,5,6-pentafluoro)benzenesulfonylamino-3-(3-(3-(4-piperidyl)propanoylamino)propanoylamino)propanoic Acid]",6.90
12,"O=C(CCC1CCNCC1)NCCC(=O)NC[C@H](NS(=O)(=O)c1ccc(F)cc1)C(=O)O [Example 35, (2S)-2-(4-fluoro)benzenesulfonylamino-3-(3-(3-(4-piperidyl)propanoylamino)propanoylamino)propanoic Acid]",7.60
13,"O=C(CCC1CCNCC1)NCCC(=O)NC[C@H](NS(=O)(=O)c1ccc(Cl)cc1)C(=O)O [Example 36, (2S)-2-(4-chloro)benzenesulfonylamino-3-(3-(3-(4-piperidyl)propanoylamino)propanoylamino)propanoic Acid]",7.21
14,"O=C(CCC1CCNCC1)NCCC(=O)NC[C@H](NS(=O)(=O)c1ccc(Br)cc1)C(=O)O [Example 37, (2S)-2-(4-bromo)benzenesulfonylamino-3-(3-(3-(4-piperidyl)propanoylamino)propanoylamino)propanoic Acid]",7.32
15,"CCc1ccc(S(=O)(=O)N[C@@H](CNC(=O)CCNC(=O)CCC2CCNCC2)C(=O)O)cc1 [Example 38, (2S)-2-(4-ethyl)benzenesulfonylamino-3-(3-(3-(4-piperidyl)propanoylamino)propanoylamino)propanoic Acid]",7.46
16,"CC(C)(C)c1ccc(S(=O)(=O)N[C@@H](CNC(=O)CCNC(=O)CCC2CCNCC2)C(=O)O)cc1 [Example 39, (2S)-2-(4-t-butyl)benzenesulfonylamino-3-(3-(3-(4-piperidyl)propanoylamino)propanoylamino)propanoic Acid]",6.73
17,"COc1ccc(S(=O)(=O)N[C@@H](CNC(=O)CCNC(=O)CCC2CCNCC2)C(=O)O)cc1 [Example 40, (2S)-2-(4-methoxy)benzenesulfonylamino-3-(3-(3-(4-piperidyl)propanoylamino)propanoylamino)propanoic Acid]",8.52
18,"O=C(CCC1CCNCC1)NCCC(=O)NC[C@H](NS(=O)(=O)c1cccc2ccccc12)C(=O)O [Example 41, (2S)-2-(1-naphthalene)sulfonylamino-3-(3-(3-(4-piperidyl)propanoylamino)propanoylamino)propanoic Acid]",7.46
19,"CN(C)c1cccc2c(S(=O)(=O)N[C@@H](CNC(=O)CCNC(=O)CCC3CCNCC3)C(=O)O)cccc12 [Example 42, (2S)-2-(5-dimethylamino-1-naphthalene)sulfonylamino-3-(3-(3-(4-piperidyl)propanoylamino)propanoylamino)propanoic Acid]",6.63

# Same assay, conditions: Table 1, human PRP, ADP 3 μg/ml, 37° C.
row,SMILES,pIC50
1,"CCCCS(=O)(=O)N[C@@H](CNC(=O)CCNC(=O)CCC1CCNCC1)C(=O)O [Example 3, (2S)-2-butanesulfonylamino-3-(3-(3-(4-piperidyl)propanoylamino)propanoylamino)propanoic Acid]",6.79
2,"O=C(CCC1CCNCC1)NCCC(=O)NC[C@H](NC(=O)OCc1ccccc1)C(=O)O [Example 4, (2S)-2-Benzyloxycarbonylamino-3-(3-(3-(4-piperidyl)propanoylamino)propanoylamino)propanoic Acid]",6.29
3,"CCCCS(=O)(=O)N[C@@H](CNC(=O)CNC(=O)CCCC1CCNCC1)C(=O)O [Example 5, (2S)-2-butanesulfonylamino-3-(N-(4-(4-piperidyl)butanoyl)glycylamino)propanoic Acid]",5.52
4,"O=C(CCC(=O)NC[C@H](NS(=O)(=O)c1ccccc1)C(=O)O)NCCC1CCNCC1 [Example 6, (2S)-2-benzenesulfonylamino-3-(N-(2-(4-piperidyl)ethyl)succinamylamino)propanoic Acid]",6.42
5,"CCCCS(=O)(=O)N[C@@H](CNC(=O)CNC(=O)[C@H](C)N(C)C(=O)CCC1CCNCC1)C(=O)O [Example 7, (2S)-2-butanesulfonylamino-3-(N-(3-(4-piperidyl)propanoyl)-N-methyl-L-alanylglycylamino)propanoic Acid]",5.91
6,"CCCCS(=O)(=O)N[C@@H](CNC(=O)CNC(=O)CCCCCC1CCNCC1)C(=O)O [Example 8, (2S)-2-butanesulfonylamino-3-(N-(6-(4-piperidyl)hexanoyl)glycylamino)propanoic Acid]",6.23
7,"CCCCS(=O)(=O)N[C@H](CNC(=O)CCNC(=O)CCC1CCNCC1)C(=O)O [Example 9, (2R)-2-butanesulfonylamino-3-(3-(3-(4-piperidyl)propanoylamino)propanoylamino)propanoic Acid]",5.44
8,"O=C(CCC1CCNCC1)NCCC(=O)NC[C@H](NS(=O)(=O)Cc1ccccc1)C(=O)O [Example 10, (2S)-2-benzylsulfonylamino-3-(3-(3-(4-piperidyl)propanoylamino)propanoylamino)propanoic Acid]",6.63
9,"CCCCC(=O)N[C@@H](CNC(=O)CCNC(=O)CCC1CCNCC1)C(=O)O [Example 11, (2S)-2-pentanoylamino-3-(3-(3-(4-piperidyl)propanoylamino)propanoylamino)propanoic Acid]",5.06
10,"CCCCS(=O)(=O)N[C@@H](CNC(=O)CNC(=O)CCCCC1CCNCC1)C(=O)O [Example 12, (2S)-2-butanesulfonylamino-3-(N-(5-(4-piperidyl)pentanoyl)glycylamino)propanoic Acid]",5.86
11,"CCCCS(=O)(=O)N[C@@H](CNC(=O)CCNC(=O)CCCCC1CCNCC1)C(=O)O [Example 13, (2S)-2-butanesulfonylamino-3-(3-(5-(4-piperidyl)pentanoylamino)propanoylamino)propanoic Acid]",5.74
12,"CCCCS(=O)(=O)N[C@@H](CNC(=O)CNC(=O)[C@H](Cc1ccc(OC)cc1)NC(=O)CCC1CCNCC1)C(=O)O [Example 14, (2S)-2-butanesulfonylamino-3-(N-(3-(4-piperidyl)propanoyl)-O-methyl-L-tyrosylglycylamino)propanoic Acid]",5.21
13,"CCCCS(=O)(=O)N[C@@H](CNC(=O)CNC(=O)[C@H](C)NC(=O)CCC1CCNCC1)C(=O)O [Example 15, (2S)-2-butanesulfonylamino-3-(N-(3-(4-piperidyl)propanoyl)-L-alanylglycylamino)propanoic Acid]",5.28
14,"COc1ccc(C[C@H](NC(=O)CCC2CCNCC2)C(=O)NCC(=O)NC[C@H](NS(C)(=O)=O)C(=O)O)cc1 [Example 16, (2S)-2-methanesulfonylamino-3-(N-(3-(4-piperidyl)propanoyl)-O-methyl-L-tyrosylglycylamino)propanoic Acid]",5.60

# Reference: patent US6048854A, “2,3-diaminopropionic acid derivative” (Sumitomo Pharmaceuticals Company, Limited, priority 1993, dated 2000)
